Assay results reported in the supplement of paper PMC11451515.

Tested on: SEM cells
Assay: cell viability relative to DMSO control; higher = less cytotoxic
Conditions: 48 h
How it was run: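 Before seeding, each leukemia line was adapted for at least four passages in each medium. NOMO1 or SEM cells (500 cells/well) and P12-Ichikawa cells (1000 cells/well) went into 1536-well plates at 5 μl, then received library compounds in DMSO by pin dosing across 11 threefold concentrations, 47 μM to 0.79 nM. Readout was CellTiter-Glo One luminescence after 48 h at 37°C, and viability is given as a per-plate percentage of DMSO wells, with cell-free wells as background.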

[1] = HPLM + 10% dialyzed FBS, 0.000781 µM
[2] = HPLM + 10% dialyzed FBS, 0.00234 µM
[3] = HPLM + 10% dialyzed FBS, 0.00702 µM
[4] = HPLM + 10% dialyzed FBS, 0.0211 µM
[5] = HPLM + 10% dialyzed FBS, 0.0632 µM
[6] = HPLM + 10% dialyzed FBS, 0.19 µM
[7] = HPLM + 10% dialyzed FBS, 0.569 µM
[8] = HPLM + 10% dialyzed FBS, 1.71 µM
[9] = HPLM + 10% dialyzed FBS, 5.12 µM
[10] = HPLM + 10% dialyzed FBS, 15.4 µM
[11] = HPLM + 10% dialyzed FBS, 46.1 µM
[12] = RPMI 5 mM glucose + 10% FBS, 0.000781 µM
[13] = RPMI 5 mM glucose + 10% FBS, 0.00234 µM
[14] = RPMI 5 mM glucose + 10% FBS, 0.00702 µM
[15] = RPMI 5 mM glucose + 10% FBS, 0.0211 µM
[16] = RPMI 5 mM glucose + 10% FBS, 0.0632 µM
[17] = RPMI 5 mM glucose + 10% FBS, 0.19 µM
[18] = RPMI 5 mM glucose + 10% FBS, 0.569 µM
[19] = RPMI 5 mM glucose + 10% FBS, 1.71 µM
[20] = RPMI 5 mM glucose + 10% FBS, 5.12 µM
[21] = RPMI 5 mM glucose + 10% FBS, 15.4 µM
[22] = RPMI 5 mM glucose + 10% FBS, 46.1 µM
[23] = RPMI 5 mM glucose + 10% dialyzed FBS, 0.000781 µM
[24] = RPMI 5 mM glucose + 10% dialyzed FBS, 0.00234 µM
[25] = RPMI 5 mM glucose + 10% dialyzed FBS, 0.00702 µM
[26] = RPMI 5 mM glucose + 10% dialyzed FBS, 0.0211 µM
[27] = RPMI 5 mM glucose + 10% dialyzed FBS, 0.0632 µM
[28] = RPMI 5 mM glucose + 10% dialyzed FBS, 0.19 µM
[29] = RPMI 5 mM glucose + 10% dialyzed FBS, 0.569 µM
[30] = RPMI 5 mM glucose + 10% dialyzed FBS, 1.71 µM
[31] = RPMI 5 mM glucose + 10% dialyzed FBS, 5.12 µM
[32] = RPMI 5 mM glucose + 10% dialyzed FBS, 15.4 µM
[33] = RPMI 5 mM glucose + 10% dialyzed FBS, 46.1 µM

SMILES | cell viability [1] | cell viability [2] | cell viability [3] | cell viability [4] | cell viability [5] | cell viability [6] | cell viability [7] | cell viability [8] | cell viability [9] | cell viability [10] | cell viability [11] | cell viability [12] | cell viability [13] | cell viability [14] | cell viability [15] | cell viability [16] | cell viability [17] | cell viability [18] | cell viability [19] | cell viability [20] | cell viability [21] | cell viability [22] | cell viability [23] | cell viability [24] | cell viability [25] | cell viability [26] | cell viability [27] | cell viability [28] | cell viability [29] | cell viability [30] | cell viability [31] | cell viability [32] | cell viability [33]
NCCOc1cc(C(=O)Nc2cc(OCCN)c3ccccc3n2)nc(C(=O)Nc2cc(OCCN)c3ccccc3n2)c1 | 47.6% | 56.1% | 36.1% | 23.8% | 19.4% | 22.9% | 22.8% | 21.5% | 22.2% | 31.1% | 46.3% | 23.9% | 19.8% | 23.7% | 21.1% | 22.1% | 23.6% | 23.2% | 19.3% | 27.5% | 32.6% | 61.1% | 67.3% | 58.4% | 42.6% | 25.6% | 22.9% | 20% | 22.9% | 25.4% | 21.7% | 38.2% | 59.5%
COc1cccc(OC)c1-c1cc(C(=O)NC2(C(=O)O)C3CC4CC(C3)CC2C4)nn1-c1ccnc2cc(Cl)ccc12 (stereo unspecified) | 107% | 94.1% | 96.4% | 109% | 115% | 112% | 117% | 102% | 104% | 97.8% | 112% | 89.7% | 98% | 106% | 92.4% | 107% | 98.4% | 104% | 110% | 117% | 92.6% | 79.2% | 95.2% | 118% | 109% | 126% | 96.3% | 119% | 117% | 102% | 116% | 118% | 113%
CN(C[C@@H]1COCCO1)[S+]([O-])(=O)NC2=CC3=C(C=C2)\C=C/C4=C(C=C(C=N4)C5=C[N](C)N=C5)C3=O | 85.5% | 93.9% | 92.6% | 86.4% | 79.5% | 80.8% | 69.9% | 48.8% | 29.8% | 22.4% | 24.8% | 113% | 86.6% | 110% | 109% | 85.5% | 76.3% | 53.1% | 35.2% | 22.2% | 16% | 16.4% | 78.9% | 96.4% | 91.2% | 86.8% | 85.2% | 66.3% | 60.8% | 38.5% | 24.5% | 17.3% | 18.3%
O=C1\C=C(OC2=C(C=CC=C12)C3=CC=CC4=C3SC5=C4C=CC=C5)\N6CCOCC6 | 110% | 103% | 121% | 120% | 124% | 115% | 107% | 104% | 96.9% | 89.9% | 91.2% | 133% | 104% | 105% | 138% | 109% | 112% | 112% | 114% | 73% | 60.2% | 62.7% | 129% | 109% | 116% | 123% | 116% | 123% | 122% | 113% | 78.5% | 75.7% | 76%
CCN1\C=C(C(O)=O)/C(=O)C2=C1C(=C(N3CCNC(C)C3)C(=C2)F)F (stereo unspecified) | 92.5% | 99% | 106% | 117% | 109% | 95.3% | 116% | 110% | 118% | 97.3% | 112% | 99.8% | 95% | 111% | 111% | 110% | 100% | 108% | 110% | 112% | 107% | 96.4% | 93.4% | 105% | 116% | 119% | 133% | 107% | 125% | 117% | 102% | 97% | 119%
COc1cc(N2CCC(N3CCN(C)CC3)CC2)ccc1Nc1ncc(Cl)c(Nc2ccccc2[S+](=O)([O-])C(C)C)n1 | 50.9% | 55.6% | 75.8% | 89.1% | 127% | 84.1% | 89.4% | 19.3% | 22% | 17.5% | 13.6% | 48.1% | 57.5% | 93.2% | 105% | 117% | 84.1% | 72.7% | 16.1% | 12.9% | 8.26% | 4.14% | 58.8% | 63.1% | 86.6% | 117% | 119% | 86.2% | 90.1% | 17.8% | 14.9% | 15% | 11.9%
O=C(Nc1cccnc1)N1CCC(Cc2cccc(Oc3ccc(C(F)(F)F)cn3)c2)CC1 | 42% | 94.2% | 83.5% | 95.1% | 117% | 88.7% | 94.3% | 69.6% | 49.3% | 11.2% | 9% | 46.8% | 92.7% | 81.5% | 89.8% | 100% | 88.4% | 64.9% | 57.1% | 35.8% | 6.35% | 4.68% | 37.7% | 91.2% | 81.1% | 78.1% | 98.4% | 91.1% | 86.9% | 58.1% | 34.7% | 14.4% | 8.02%
